The record followed here is publication PMC11995724, “Antibiotic target discovery by integrated phenotypic and activity-based profiling of electrophilic fragments” (Cell chemical biology, 2025).

Structures can show the parent of a compound that is named as a salt.

This data set can be described thus: in vitro. The note with it: human, hek293t cells.
On to `Cc1cc(C(=O)CCl)c(C)n1-c1ccccc1` [10-L20, 2-chloro-1-(2,5-dimethyl-1-phenyl-1H-pyrrol-3-yl)ethan-1-one], for which the viability – broadly, a read-out of living cells in per cent, often relative to untreated cells – at 48 h, 25 µM turned out to be 1.11%.
Then `C=CC(=O)Nc1ccccc1Sc1nncs1` [1-G04, N-[2-(1,3,4-thiadiazol-2-ylsulfanyl)phenyl]prop-2-enamide], with 32.3%; and `CC(=O)Nc1ccc(C(=O)C(C)Cl)cc1` (stereo not drawn) [10-K06, N-[4-(2-chloropropanoyl)phenyl]acetamide], with 101%.
Then `C=CC(=O)N1CCC(C(=O)N2CCCCC(SCC)C2)CC1` (stereo not drawn) [2-P10, 1-{4-[3-(ethylsulfanyl)azepane-1-carbonyl]piperidin-1-yl}prop-2-en-1-one], with 108%.
Regarding `Cc1nn(C)c(N2CCCN(C)CC2)c1CNC(=O)C(C)Cl` (stereo not drawn) [6-N17, 2-chloro-N-{[1,3-dimethyl-5-(4-methyl-1,4-diazepan-1-yl)-1H-pyrazol-4-yl]methyl}propanamide], the viability at 48 h, 25 µM was 107%.
For `CCN(Cc1cccs1)C(=O)CCl` [5-F07, 2-chloro-N-ethyl-N-[(thiophen-2-yl)methyl]acetamide], the viability at 48 h, 25 µM was found to be 1.01%.
Then `C=CC(=O)NC(C)c1nnnn1-c1ccccc1` (stereo not drawn) [2-I11, N-[1-(1-phenyl-1H-1,2,3,4-tetrazol-5-yl)ethyl]prop-2-enamide], with 196%; and `N#CC(=Cc1cccc(Cl)c1Cl)C(N)=O` [8-J21, 2-cyano-3-(2,3-dichlorophenyl)prop-2-enamide], with 121%.
With `Cc1ccccc1NC(=O)C(C#N)=Cc1cccnc1` [8-D10, 2-cyano-N-(2-methylphenyl)-3-(pyridin-3-yl)prop-2-enamide], the viability at 48 h, 25 µM came to 95.5%.
For `CN(Cc1ccccc1)S(=O)(=O)c1ccc(NC(=O)CCl)cc1` [5-K08, N-{4-[benzyl(methyl)sulfamoyl]phenyl}-2-chloroacetamide], the viability at 48 h, 25 µM is 16.1%.
The same measure for `CCc1ccc(C(=O)CCl)cc1` [10-F18, 2-chloro-1-(4-ethylphenyl)ethan-1-one]: 1.07%.
Then `CC(C)NC(=O)C(C#N)=Cc1ccccc1Cl` [9-A09, 3-(2-chlorophenyl)-2-cyano-N-(propan-2-yl)prop-2-enamide], with 95.9%; and `O=C(CCl)Nc1cccc(Oc2ccccc2)c1` [4-P19, 2-chloro-N-(3-phenoxyphenyl)acetamide], with 0.14%; and `O=C(CCl)NC1CCN(Cc2cscn2)CC1` [7-H04, 2-chloro-N-{1-[(1,3-thiazol-4-yl)methyl]piperidin-4-yl}acetamide hydrochloride], with 0.789%.
Then `CN(CC(=O)Nc1ccccc1Cl)C(=O)CCl` [4-D05, 2-chloro-N-{[(2-chlorophenyl)carbamoyl]methyl}-N-methylacetamide], with 0.034%; and `COc1ccc(CN2CCN(C(=O)CCl)CC2)cc1` [5-A15, 2-chloro-1-{4-[(4-methoxyphenyl)methyl]piperazin-1-yl}ethan-1-one hydrochloride], with -0.117%.
As to `CC(Cl)C(=O)Nc1ccc2c(c1)OCCCO2` (stereo not drawn) [4-K10, 2-chloro-N-(3,4-dihydro-2H-1,5-benzodioxepin-7-yl)propanamide], the viability at 48 h, 25 µM turned out to be 85.4%.
Turning to `CCn1cc(C2CN(C(=O)C(C)Cl)CCO2)cn1` (stereo not drawn) [7-G08, 2-chloro-1-[2-(1-ethyl-1H-pyrazol-4-yl)morpholin-4-yl]propan-1-one], the viability at 48 h, 25 µM worked out at 89.1%.
The same measure for `Cc1ccccc1NC(=O)C(C#N)=Cc1cccc2ccccc12` [8-H09, 2-cyano-N-(2-methylphenyl)-3-(naphthalen-1-yl)prop-2-enamide]: 88.4%; for `O=C(CCl)Nc1ccc(S(=O)(=O)N2CCCC2)cc1` [4-F08, 2-chloro-N-[4-(pyrrolidine-1-sulfonyl)phenyl]acetamide]: 1.07%.
Then `Cc1cc(NS(=O)(=O)c2ccc(NC(=O)CCl)cc2)nc(C)n1` [5-I09, 2-chloro-N-{4-[(2,6-dimethylpyrimidin-4-yl)sulfamoyl]phenyl}acetamide], with 1.31%.
Take `CC(=O)NCCc1ccc(C(=O)CCl)s1` [10-P03, N-{2-[5-(2-chloroacetyl)thiophen-2-yl]ethyl}acetamide]: the viability at 48 h, 25 µM is 64.9%.
Then `CC(Cl)C(=O)N1CC(S(=O)(=O)c2ccccc2F)C1` (stereo not drawn) [7-M15, 2-chloro-1-[3-(2-fluorobenzenesulfonyl)azetidin-1-yl]propan-1-one], with 96.3%; and `Cc1ccc(C=C(C#N)C(=O)NC(C)C)o1` [8-I21, 2-cyano-3-(5-methylfuran-2-yl)-N-(propan-2-yl)prop-2-enamide], with 95.7%; and `Cc1ccccc1N1C(=O)C=CC1=O` [10-J13, 1-(2-methylphenyl)-2,5-dihydro-1H-pyrrole-2,5-dione], with 109%.
The same measure for `O=C(CCl)Nc1c(Cl)c(Cl)cc(Cl)c1Cl` [4-O16, 2-chloro-N-(2,3,5,6-tetrachlorophenyl)acetamide]: 1.16%; for `N#CCCN(C(=O)CCl)c1cccc(Cl)c1` [6-A17, 2-chloro-N-(3-chlorophenyl)-N-(2-cyanoethyl)acetamide]: -0.154%.
The same measure for `C=CC(=O)Nc1ccc(F)cc1C(C)(F)F` [1-C16, N-[2-(1,1-difluoroethyl)-4-fluorophenyl]prop-2-enamide]: 137%.
For `COc1ccc(CCNC(=O)C(C)Cl)cc1` (stereo not drawn) [5-D12, 2-chloro-N-[2-(4-methoxyphenyl)ethyl]propanamide], the viability at 48 h, 25 µM was 104%.
For `C=CC(=O)NCC1CCOC1` (stereo not drawn) [1-H08, N-[(oxolan-3-yl)methyl]prop-2-enamide], the viability at 48 h, 25 µM was determined as 69.4%.
Take `C=CC(=O)N1CCC(C(=O)NCC(C)(C)C=C)CC1` [2-G04, N-(2,2-dimethylbut-3-en-1-yl)-1-(prop-2-enoyl)piperidine-4-carboxamide]: the viability at 48 h, 25 µM was determined as 84.5%.
Then `C=CC(=O)N1CCn2cccc2C12COC2` [1-K09, 1-{3',4'-dihydro-2'H-spiro[oxetane-3,1'-pyrrolo[1,2-a]pyrazin]-2'-yl}prop-2-en-1-one], with 80.6%.
For the compound `CC(Cl)C(=O)NCCn1cccc1` (stereo not drawn) [7-G21, 2-chloro-N-[2-(1H-pyrrol-1-yl)ethyl]propanamide], the viability at 48 h, 25 µM came out at 87.8%.
Then `CS(=O)(=O)Nc1ccc(C(=O)CCl)cc1` [10-D19, N-[4-(2-chloroacetyl)phenyl]methanesulfonamide], with 76.6%; and `Cc1cc(-n2c(C)cc(C=C(C#N)C(=O)NC3CCCC3)c2C)no1` [9-J15, 2-cyano-N-cyclopentyl-3-[2,5-dimethyl-1-(5-methyl-1,2-oxazol-3-yl)-1H-pyrrol-3-yl]prop-2-enamide], with 91.8%.
Then `O=C(CCl)c1cc(Cl)sc1Cl` [10-D16, 2-chloro-1-(2,5-dichlorothiophen-3-yl)ethan-1-one], with 1.77%; and `O=C(CCl)N1c2ccccc2SCC1c1ccccc1` (stereo not drawn) [4-M18, 2-chloro-1-(3-phenyl-3,4-dihydro-2H-1,4-benzothiazin-4-yl)ethan-1-one], with -0.0405%; and `C=CC(=O)NCc1ccno1` [1-O07, N-[(1,2-oxazol-5-yl)methyl]prop-2-enamide], with 68.4%.
With `N#CC(=Cc1ccc(F)cc1)C(=O)NCCc1cccc(Cl)c1` [8-K06, N-[2-(3-chlorophenyl)ethyl]-2-cyano-3-(4-fluorophenyl)prop-2-enamide], the viability at 48 h, 25 µM was determined as 49.6%.
With `C=CC(=O)N1CCC(c2nnc(C)o2)CC1` [3-N04, 1-[4-(5-methyl-1,3,4-oxadiazol-2-yl)piperidin-1-yl]prop-2-en-1-one], the viability at 48 h, 25 µM is 87.3%.
On to `CC(C)N(C)S(=O)(=O)c1ccc(NC(=O)CCl)cc1` [4-K13, 2-chloro-N-{4-[methyl(propan-2-yl)sulfamoyl]phenyl}acetamide], for which the viability at 48 h, 25 µM was 1.64%.
Then `Cc1nn(-c2ccccc2)c(C)c1C=C(C#N)C(=O)Nc1nccs1` [9-E07, 2-cyano-3-(3,5-dimethyl-1-phenyl-1H-pyrazol-4-yl)-N-(1,3-thiazol-2-yl)prop-2-enamide], with 119%; and `COc1ccc(C2=NN(C(=O)CCl)C(c3cccc(C)c3)C2)cc1` (stereo not drawn) [4-G20, 2-chloro-1-[3-(4-methoxyphenyl)-5-(3-methylphenyl)-4,5-dihydro-1H-pyrazol-1-yl]ethan-1-one], with -0.0034%; and `N#CC(=Cc1cc(F)ccc1F)C(=O)NC1CCCCC1` [8-G08, 2-cyano-N-cyclohexyl-3-(2,5-difluorophenyl)prop-2-enamide], with 9.88%.
Then `C=CC(=O)N1CCC(C(=O)NC(C)(C)CSC)CC1` [3-M14, N-[2-methyl-1-(methylsulfanyl)propan-2-yl]-1-(prop-2-enoyl)piperidine-4-carboxamide], with 153%; and `CC(Cl)C(=O)Nc1ccccc1` (stereo not drawn) [5-F10, 2-chloro-N-phenylpropanamide], with 91.9%.
Then `C=CC(=O)NC1c2cccc(F)c2CCC1C` (stereo not drawn) [1-B21, N-(5-fluoro-2-methyl-1,2,3,4-tetrahydronaphthalen-1-yl)prop-2-enamide], with 92.8%.
Take `CC(C)OC(=O)c1c(NC(=O)CCl)sc2c1CCCC2` [4-E21, propan-2-yl 2-(2-chloroacetamido)-4,5,6,7-tetrahydro-1-benzothiophene-3-carboxylate]: the viability at 48 h, 25 µM turned out to be 112%.
As to `COc1ccc(C=C(C#N)C(=O)Nc2ccc(C(=O)O)cc2)cc1O` [9-F10, 4-[2-cyano-3-(3-hydroxy-4-methoxyphenyl)prop-2-enamido]benzoic acid], the viability at 48 h, 25 µM was determined as 120%.
Then `C=CC(=O)NCC1OCCc2sc(F)cc21` (stereo not drawn) [2-P09, N-({2-fluoro-4H,6H,7H-thieno[3,2-c]pyran-4-yl}methyl)prop-2-enamide], with 72.3%.
Then `COc1ccc(C=C(C#N)C(=O)NCc2ccccc2)cc1O` [8-C09, N-benzyl-2-cyano-3-(3-hydroxy-4-methoxyphenyl)prop-2-enamide], with 66.6%.
